# Assay results published in the supplement of paper PMC10307832.
# Legend:
# Assay in all cases: relative viability (nuclei count vs DMSO), 5 days (fraction); higher = more cells survive
# Bosutinib + Lapatinib = compound: COc1cc(Nc2c(C#N)cnc3cc(OCCCN4CCN(C)CC4)c(OC)cc23)c(Cl)cc1Cl [Bosutinib] + CS(=O)(=O)CCNCc1ccc(-c2ccc3ncnc(Nc4ccc(OCc5cccc(F)c5)c(Cl)c4)c3c2)o1 [Lapatinib] (partner 2 µM)
# How it was run: (§1)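 The day after seeding in 1536-well plates, lung cancer cell lines were treated by pin tool with a single drug, or with a fixed anchor-drug dose together with five library-drug doses (not always all listed) in √10 steps. After 5 days, a combined fix-and-stain solution (final 0.05% Triton X-100, 1% formaldehyde, 1 ug/ml Hoechst) was added. Nuclei counted on 4× images gave relative viability as treated counts over vehicle counts, reported as the median of duplicate plates.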
# Bosutinib + Phenformin = compound: COc1cc(Nc2c(C#N)cnc3cc(OCCCN4CCN(C)CC4)c(OC)cc23)c(Cl)cc1Cl [Bosutinib] + N=C(N)NC(=N)NCCc1ccccc1 [Phenformin] (partner 250 µM)
# How it was run: as §1
# Bosutinib + Pemetrexed = compound: COc1cc(Nc2c(C#N)cnc3cc(OCCCN4CCN(C)CC4)c(OC)cc23)c(Cl)cc1Cl [Bosutinib] + Nc1nc2[nH]cc(CCc3ccc(C(=O)N[C@@H](CCC(=O)O)C(=O)O)cc3)c2c(=O)[nH]1 [Pemetrexed] (partner 0.2 µM)
# How it was run: as §1
# Bosutinib + Olaparib = compound: COc1cc(Nc2c(C#N)cnc3cc(OCCCN4CCN(C)CC4)c(OC)cc23)c(Cl)cc1Cl [Bosutinib] + O=C(c1cc(Cc2n[nH]c(=O)c3ccccc23)ccc1F)N1CCN(C(=O)C2CC2)CC1 [Olaparib] (partner 8 µM)
# How it was run: as §1
# Bosutinib + Palbociclib = compound: COc1cc(Nc2c(C#N)cnc3cc(OCCCN4CCN(C)CC4)c(OC)cc23)c(Cl)cc1Cl [Bosutinib] + CC(=O)c1c(C)c2cnc(Nc3ccc(N4CCNCC4)cn3)nc2n(C2CCCC2)c1=O [Palbociclib] (partner 0.5 µM)
# How it was run: as §1
Cell Line,relative viability (Bosutinib + Lapatinib; first compound 0.01 µM),relative viability (Bosutinib + Lapatinib; first compound 0.03162 µM),relative viability (Bosutinib + Lapatinib; first compound 0.1 µM),relative viability (Bosutinib + Lapatinib; first compound 1 µM),relative viability (Bosutinib + Phenformin; first compound 0.01 µM),relative viability (Bosutinib + Phenformin; first compound 0.03162 µM),relative viability (Bosutinib + Phenformin; first compound 0.1 µM),relative viability (Bosutinib + Phenformin; first compound 1 µM),relative viability (Bosutinib + Pemetrexed; first compound 0.01 µM),relative viability (Bosutinib + Pemetrexed; first compound 0.03162 µM),relative viability (Bosutinib + Pemetrexed; first compound 0.1 µM),relative viability (Bosutinib + Pemetrexed; first compound 1 µM),relative viability (Bosutinib + Olaparib; first compound 0.01 µM),relative viability (Bosutinib + Olaparib; first compound 0.03162 µM),relative viability (Bosutinib + Olaparib; first compound 0.1 µM),relative viability (Bosutinib + Olaparib; first compound 1 µM),relative viability (Bosutinib + Palbociclib; first compound 0.01 µM),relative viability (Bosutinib + Palbociclib; first compound 0.03162 µM),relative viability (Bosutinib + Palbociclib; first compound 0.1 µM),relative viability (Bosutinib + Palbociclib; first compound 1 µM)
HCC-78,0.468,0.798,0.817,0.7,0.665,0.703,0.802,0.7,0.893,0.916,0.936,0.859,0.722,0.937,0.888,0.687,0.457,0.425,0.506,0.435
HCC-366,1.16,0.942,0.939,0.884,0.63,0.61,0.555,0.53,0.167,0.158,0.162,0.166,0.406,0.378,0.376,0.19,0.423,0.365,0.375,0.247
HCC-827,0.167,0.25,0.19,0.169,0.427,0.407,0.366,0.19,0.248,0.282,0.273,0.231,0.609,0.817,0.626,0.217,0.439,0.473,0.469,0.196
HOP-62,0.977,1.12,1.08,1.01,0.699,0.706,0.65,0.741,0.297,0.414,0.317,0.317,,0.395,0.451,0.435,0.378,0.487,0.473,0.447
IA-LM,0.811,0.848,0.92,0.798,,,,,,,,,0.964,0.927,0.858,0.77,,,,
LC-2-ad,0.99,0.92,1.05,1.01,0.659,0.549,0.577,0.694,0.266,0.306,0.287,0.27,0.719,0.672,0.678,0.732,0.498,0.507,0.522,0.478
LCLC-97TM1,1.43,1.29,1.24,1.14,0.452,0.434,0.541,0.411,0.18,0.181,0.211,0.228,0.41,0.402,0.372,0.351,0.224,0.245,0.256,0.2
LCLC-103H,,,,,0.338,0.322,0.327,0.409,0.442,0.516,0.5,0.449,0.734,0.774,0.741,0.782,0.497,0.498,0.452,0.491
LK-2,0.848,1.12,0.944,0.803,0.711,0.552,0.382,0.348,0.235,0.281,0.321,0.266,0.538,0.962,0.807,0.707,0.681,0.636,0.584,0.66
LOU-NH91,0.759,0.824,0.791,0.723,0.717,0.699,0.636,0.497,0.394,0.395,0.378,0.4,0.889,0.868,0.898,0.697,0.529,0.541,0.541,0.563
LU99A,1.05,1.01,0.976,0.876,0.92,0.781,0.832,0.478,0.2,0.208,0.193,0.182,0.234,0.291,0.284,0.245,0.45,0.409,0.44,0.421
NCI-H441,,,,,0.946,0.869,0.821,0.657,0.242,0.272,0.264,0.251,0.431,0.562,0.755,0.678,0.193,0.217,0.262,0.22
NCI-H522,,,,,0.657,0.623,0.63,0.613,0.982,0.985,0.86,0.863,0.616,0.645,0.735,0.619,1.07,0.93,0.996,0.8
NCI-H596,1.07,0.991,1.07,1.1,0.883,0.668,0.721,0.646,0.576,0.464,0.503,0.505,0.73,0.715,0.705,0.564,,,,
NCI-H727,0.781,0.767,0.781,0.384,0.695,0.371,0.42,0.407,,,,,0.6,0.87,0.69,0.563,0.642,0.673,0.63,0.632
NCI-H1563,0.869,0.931,0.84,0.758,0.65,0.635,0.617,0.573,0.655,0.771,0.772,0.638,,,,,,,,
NCI-H1703,1.04,1.1,0.825,0.653,,,,,,,,,0.371,0.471,0.311,0.26,,,,
NCI-H2342,,,,,0.565,0.68,0.56,0.643,0.783,0.799,0.813,0.841,0.419,0.379,0.464,0.432,0.539,0.508,0.545,0.579
SW 900,,,,,0.577,,0.686,0.458,0.465,0.501,0.462,0.39,0.824,0.769,0.766,0.538,0.524,0.525,0.5,0.352
